Numbers after ± are expanded uncertainties.
What was measured:
[1] = Crystal; DTA
[2] = Molar enthalpy of transition or fusion; conditions: Crystal; DSC

Normal melting temperature [1]: 138.70 ± 1.1 °C
Molar enthalpy of transition or fusion [2]: 29 ± 0.8 kJ/mol
SMILES: NC(=O)c1ccccc1O [2-hydroxybenzamide]
